Laboratory results: patent US9150512B2, “Tricyclic lactam derivatives as 11-beta hydroxysteroid dehydrogenase inhibitors” (Janssen Pharmaceutica NV, priority 2004, dated 2015)

What was measured:
hHSD1 = hHSD1 (Homo sapiens, UniProt P28845); experiment: Enzymatic assay, 11b-HSD1 reductase activity (conversion of cortisone into cortisol), recombinant protein; assay type: biochemical; conditions: 2 μM cortisone, 180 μM NADPH, pH 7.2, pIC50 scored, read-out: [C1] hHSD1 reductase Score
Protocol: The effects of compounds on 11b-HSD1 dependent conversion of cortisone into cortisol (reductase activity) was studied in a reaction mixture containing 30 mM Tris-HCl buffer pH 7.2, 180 μM NADPH, 1 mM EDTA, 2 μM cortisone, 1 μl drug and/or solvent and 11 μg recombinant protein in a final volume of 100 μl.
All incubations were performed for 45 min at 37 C in a water bath. The reaction was stopped by adding 100 μl acetonitrile containing 20 μg corticosterone as internal standard. After centrifugation, the product formation was analysed in the supernatant by HPLC on a Hypersyl BDS-C18 column using 0.05 mM ammonium acetate/methanol (50/50) as solvent. In all of the aforementioned assays, the drugs to be tested were taken from a stock solution and tested at a final concentration ranging from −10^−5M to 3·10^−9M. From the thus obtained dose response curves, the pIC50 value was calculated and scored as follows; Score 1=pIC50 value<5, Score 2=pIC50 value in the range of 5 to 6, Score 3=pIC50 value>6. (in this table NT stands for Not Tested).

11b-HSD2 = target: T1, 11b-HSD2 (Homo sapiens, UniProt P80365); experiment: Cellular assay, 11b-HSD2 activity in HepG2 cells; assay type: cell-based; conditions: 4 hour pre-incubation, pIC50 scored, read-out: [C2] HSD2 cellular HepG2 Score
T1 construct: endogenous in cells; host or cells: HepG2 (ATCC HB-8065)
T1 sequence (P80365 1-405): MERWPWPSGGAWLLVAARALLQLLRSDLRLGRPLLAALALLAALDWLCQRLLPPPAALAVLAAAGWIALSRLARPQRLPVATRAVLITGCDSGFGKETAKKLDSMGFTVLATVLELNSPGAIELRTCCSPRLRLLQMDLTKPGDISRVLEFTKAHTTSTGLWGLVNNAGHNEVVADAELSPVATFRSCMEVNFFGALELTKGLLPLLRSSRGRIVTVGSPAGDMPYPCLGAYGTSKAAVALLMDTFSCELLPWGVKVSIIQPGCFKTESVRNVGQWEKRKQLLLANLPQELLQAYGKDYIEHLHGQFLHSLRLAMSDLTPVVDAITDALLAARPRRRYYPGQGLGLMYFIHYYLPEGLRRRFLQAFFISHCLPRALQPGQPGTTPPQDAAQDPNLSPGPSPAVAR
Protocol: The effects on 11b-HSD2 activity was studied in HepG2 and LCC-PK1-cells HepG2-cells (ATCC HB-8065) were seeded in 12 well plates at a density of 100,000 cells/ml and grown at 37° C. in a humidified 5% CO2 atmosphere in MEM-Rega-3 medium supplemented with 10% heat inactivated foetal calf serum, 2 mM L-glutamine and sodium bicarbonate). Medium was refreshed twice a week.
Following a 4 hour pre-incubation with test compound, 0.5 μCi ^3H-cortisol or corticosterone, was added to the cultures. One hour later, the medium was extracted on Extrelut^3-columns with 15 ml diethyl ether and the extract was analysed by HPLC as described above.
(§1) As for the enzymatic assays, the compounds to be tested were taken from a stock solution and tested at a final concentration ranging from −10^−5M to 3·10^−9M. From the thus obtained dose response curves, the pIC50 value was calculated and scored as follows; Score 1=pIC50 value<5, Score 2=pIC50 value in the range of 5 to 6, Score 3=pIC50 value>6. (in this table NT stands for Not Tested).

11b-HSD1 = target: T2, 11b-HSD1 (Mus musculus, UniProt P50172); experiment: Cellular assay, 11b-HSD1 activity in differentiated 3T3-L1 cells; assay type: cell-based; conditions: 4 hour pre-incubation, pIC50 scored, read-out: [C2] HSD1 cellular 3T3-L1 Score
T2 construct: endogenous in cells; host or cells: 3T3-L1 (ATCC-CL-173), differentiated into adipocytes
Protocol: The effects on 11b-HSD1 activity was measured in differentiated 3T3-L1 cells and rat hepatocytes.
Mouse fibroblast 3T3-L1 cells (ATCC-CL-173) were seeded at a density of 16500 cells/ml in 12 well plates and grown for 7 days in DMEM medium (supplemented with 10% heat inactivated foetal calf serum, 2 mM glutamine and 25 mg gentamycin) at 37° C. in a humidified 5% CO2 atmosphere. Medium was refreshed twice a week. Fibroblasts were differentiated into adipocytes at 37° C. in a 5% CO2 humidified atmosphere in growth medium containing 2 μg/ml insulin, 55 μg/ml IBMX and 39.2 μg/ml dexamethasone.
Primary hepatocytes from male rats were seeded on normal Falcon 12 well plates at a density of 250000 cells/well and incubated for 16 hours at 37° C. in a 5% CO2 humidified atmosphere in DMEM-HAM's F12 medium containing 5% Nu-serum, 100 U/ml penicillin, 100 μg/ml streptomycin, 0.25 μg/ml amphotericin B, 50 μg/ml gentamycin sulfate, 5 μg/ml insulin and 392 ng/ml dexamethasone. Following a 4 hour pre-incubation with test compound, 0.5 μCi ^3H-cortisone or dehydrocorticosterone, was added to the 3T3-L1 cultures. One hour later, the medium was extracted on Extrelut^3-columns with 15 ml diethyl ether and the extract was analysed by HPLC as described above. The effects of JNJ-compounds on rat hepatocyte HSD1 activity was measured after an incubation period of 90 minutes with 0.5 μCi^3H-dehydrocorticosterone. Corticosterone formation was analysed by HPLC.
as §1

T2 sequence (P50172 whole entry): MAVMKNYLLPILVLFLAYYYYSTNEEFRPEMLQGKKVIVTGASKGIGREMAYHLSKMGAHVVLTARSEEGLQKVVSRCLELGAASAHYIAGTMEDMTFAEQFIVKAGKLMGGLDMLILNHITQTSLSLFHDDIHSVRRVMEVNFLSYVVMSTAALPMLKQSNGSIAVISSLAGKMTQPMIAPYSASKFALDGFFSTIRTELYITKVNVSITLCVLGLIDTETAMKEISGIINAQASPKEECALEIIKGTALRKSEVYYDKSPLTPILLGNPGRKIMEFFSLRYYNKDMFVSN
Sequence of hHSD1 (P28845 whole entry): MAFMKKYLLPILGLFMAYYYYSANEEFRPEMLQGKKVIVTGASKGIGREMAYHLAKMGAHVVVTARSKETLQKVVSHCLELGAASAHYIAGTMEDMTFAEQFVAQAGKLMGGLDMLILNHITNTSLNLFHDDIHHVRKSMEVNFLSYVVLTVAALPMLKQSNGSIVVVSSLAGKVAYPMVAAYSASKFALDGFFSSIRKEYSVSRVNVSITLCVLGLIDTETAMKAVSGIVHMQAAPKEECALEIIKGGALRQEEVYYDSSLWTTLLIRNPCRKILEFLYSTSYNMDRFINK

Compound | IC50 (hHSD1) [µM] | IC50 (11b-HSD2) [µM] | IC50 (11b-HSD1) [µM] | melting point [°C]
O=C1[C@@H]2Cc3cccnc3C[C@@H]2CN1[C@@H]1[C@@H]2CC3C[C@H]1C[C@](O)(C3)C2 [Compound 28] | > 10 | > 10 | > 10 | –
O=C1C2=Cc3cnccc3CC2CN1C1C2CC3CC(C2)CC1C3 (centres unmarked) [Compound 22] | 1 to 10 | – | < 1 | –
O=C1[C@@H]2CCc3ccccc3[C@H]2CN1Cc1ccccc1 [Compound 19] | > 10 | – | < 1 | –
O=C1[C@H]2Cc3cnccc3C[C@H]2CN1[C@@H]1[C@@H]2CC3C[C@H]1C[C@](O)(C3)C2 [Compound 29] | > 10 | > 10 | > 10 | –
O=C1N2CCc3ccc(Br)cc3C2CN1C1C2CC3CC(C2)CC1C3 (centres unmarked) [Compound 7] | < 1 | – | < 1 | –
O=C1N2CCc3c(Br)cccc3C2CN1C1C2CC3CC(C2)CC1C3 (centres unmarked) [Compound 23] | < 1 | < 1 | < 1 | –
O=C1[C@H]2Cc3ccccc3CN2CN1C1C2CC3CC(C2)CC1C3 (some centres unmarked) [Compound 4] | > 10 | > 10 | < 1 | –
O=C1[C@@H]2CCc3ccccc3[C@@H]2CN1Cc1ccccc1 [Compound 20] | 1 to 10 | – | < 1 | –
O=C1C2Cc3ccccc3CC2CN1C1C2CC3CC(C2)CC1C3 (centres unmarked) [Compound 2] | < 1 | 1 to 10 | < 1 | –
O=C1N2CCc3ccccc3C2CN1C1C2CC3CC(C2)CC1C3 (centres unmarked) [Compound 6] | < 1 | < 1 | < 1 | –
O=C1[C@@H]2Cc3ccccc3C[C@@H]2CN1[C@@H]1[C@@H]2CC3C[C@H]1C[C@](O)(C3)C2 [Compound 26] | 1 to 10 | > 10 | 1 to 10 | –
O=C1[C@H]2CCc3ccccc3[C@@H]2CN1C1C2CC3CC(C2)CC1C3 (some centres unmarked) [Compound 3] | < 1 | < 1 | < 1 | –
O=C1[C@H]2Cc3ccccc3C[C@H]2CN1[C@H]1[C@@H]2CC3C[C@H]1C[C@](O)(C3)C2 [Compound 27] | < 1 | 1 to 10 | < 1 | –
O=C1N(C2C3CC4CC(C3)CC2C4)C[C@H]2Cc3ccccc3CN12 (some centres unmarked) [Compound 5] | 1 to 10 | 1 to 10 | < 1 | –
O=C1[C@@H]2CCc3ccccc3[C@H]2CN1[C@H]1[C@@H]2CC3C[C@H]1C[C@](F)(C3)C2 [Compound 32] | < 1 | < 1 | < 1 | –
O=C1N(CC23CC4CC(CC(C4)C2)C3)CC2c3ccccc3CCN12 (centres unmarked) [Compound 14] | < 1 | 1 to 10 | < 1 | –
COc1ccc2c(c1)CC1C(=O)N(C3C4CC5CC(C4)CC3C5)CC1C2 (centres unmarked) [Compound 10] | < 1 | > 10 | < 1 | –

Next, values leading:

IC50 (hHSD1) [µM] | IC50 (11b-HSD2) [µM] | IC50 (11b-HSD1) [µM] | melting point [°C] | Compound
1 to 10 | 1 to 10 | < 1 | – | O=C1[C@@H]2CCc3ccccc3[C@@H]2CN1C1C2CC3CC(C2)CC1C3 (some centres unmarked) [Compound 8]
< 1 | 1 to 10 | < 1 | – | O=C1[C@H]2CCc3ccccc3[C@@H]2CN1CC12CC3CC(CC(C3)C1)C2 [Compound 15]
> 10 | – | < 1 | – | O=C1C2=Cc3cccnc3CC2CN1C1C2CC3CC(C2)CC1C3 (centres unmarked) [Compound 21]
< 1 | < 1 | < 1 | – | O=C1[C@@H]2CCc3ccccc3[C@H]2CN1[C@H]1[C@@H]2CC3C[C@H]1C[C@](O)(C3)C2 [Compound 31]
– | – | 1 to 10 | – | O=C1[C@@H]2Cc3ccccc3CN2CN1C1C2CC3CC(C2)CC1C3 (some centres unmarked) [Compound 12]
1 to 10 | – | 1 to 10 | – | O=C1[C@@H]2c3ccccc3CC[C@@H]2CN1C1C2CC3CC(C2)CC1C3 (some centres unmarked) [Compound 1]
– | – | < 1 | – | O=C1N(C2C3CC4CC(C3)CC2C4)C[C@@H]2Cc3ccccc3CN12 (some centres unmarked) [Compound 11]
< 1 | < 1 | < 1 | – | O=C1[C@H]2CCc3ccccc3[C@@H]2CN1C12CC3CC(CC(C3)C1)C2 [Compound 17]
1 to 10 | – | < 1 | 210 to 212 | O=C1N2CCc3ccccc3C2CN1[C@@H]1[C@@H]2CC3C[C@H]1C[C@](O)(C3)C2 (some centres unmarked) [Compound 25]
> 10 | > 10 | > 10 | – | O=C1N(C2C3CC4CC(C3)CC2C4)CC2CCc3ccccc3N12 (centres unmarked) [Compound 13]
< 1 | 1 to 10 | < 1 | – | O=C1[C@H]2Cc3ccsc3C[C@@H]2CN1C1C2CC3CC(C2)CC1C3 (some centres unmarked) [Compound 18]
< 1 | < 1 | < 1 | – | O=C1[C@@H]2CCc3ccccc3[C@@H]2CN1[C@H]1[C@@H]2CC3C[C@H]1C[C@](O)(C3)C2 [Compound 33]
1 to 10 | – | 1 to 10 | – | O=C1[C@H]2Cc3cnccc3C[C@H]2CN1[C@H]1[C@@H]2CC3C[C@H]1C[C@](O)(C3)C2 [Compound 34]
< 1 | 1 to 10 | < 1 | – | O=C1[C@@H]2CCc3ccccc3[C@@H]2CN1CC12CC3CC(CC(C3)C1)C2 [Compound 16]
> 10 | > 10 | 1 to 10 | – | O=C1C2=Cc3cnccc3CC2CN1[C@H]1[C@@H]2CC3C[C@H]1C[C@](O)(C3)C2 (some centres unmarked) [Compound 30]
< 1 | < 1 | < 1 | 235 to 237 | O=C1N2CCc3ccccc3C2CN1[C@H]1[C@@H]2CC3C[C@H]1C[C@](O)(C3)C2 (some centres unmarked) [Compound 24]
1 to 10 | 1 to 10 | < 1 | – | COc1cccc2c1CC1CN(C3C4CC5CC(C4)CC3C5)C(=O)C1C2 (centres unmarked) [Compound 9]
